The text below walks through data of patent US10689383B2, “Optionally fused heterocyclyl-substituted derivatives of pyrimidine useful for the treatment of inflammatory, metabolic, oncologic and autoimmune diseases” (NUEVOLUTION A/S, priority 2014, dated 2020).

Assay [1] deals with T1, human RORγt (Ligand Binding Domain) (Homo sapiens, UniProt P51449).
T1 construct: purchased Crelux (Planegg, Germany) batch no PC5032-1
T1 sequence (P51449 269-508 limits assumed): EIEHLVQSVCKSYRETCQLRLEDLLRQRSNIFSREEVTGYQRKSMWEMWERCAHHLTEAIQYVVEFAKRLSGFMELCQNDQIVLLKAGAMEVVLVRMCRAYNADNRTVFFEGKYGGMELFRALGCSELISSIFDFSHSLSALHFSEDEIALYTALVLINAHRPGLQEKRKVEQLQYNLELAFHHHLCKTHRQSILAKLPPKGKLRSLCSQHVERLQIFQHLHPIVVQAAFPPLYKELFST
The assay is described as follows: Fluorescence Polarization (FP) Assay. The settings on record: Fluorescence Polarization (FP) Assay; values given as upper bounds of activity ranges; read-out: FP activity range. As for the experimental part: (§1) The activity of the compounds was evaluated using a Fluorescence Polarization (FP) Assay and, in most cases, a Th17 Assay and/or RORγ Reporter assay (also referred to as Gal4 assay). The FP assay is an in vitro assay monitoring binding within the ligand binding pocket. The RORγ and the Th17 assays are both cell-based assays monitoring functional activity of the compound assayed.
The total volume was 25 μl, in a black Perkin Elmer OptiPlate. As negative control, 1 μl DMSO was used. […] The probe is a fluorescently labeled (TAMRA) RORγt ligand identified by Nuevolution with a total molecular weight of 910 g/mole as shown in Graph A in FIG. 1.
(In general: In fluorescence polarisation assays a small probe gives low polarisation when free and higher when bound to something large.)

Assay [2] concerns the target T2, yeast Gal4-DNA binding domain fused to the ligand binding domain of human RORγ (Homo sapiens, UniProt P51449).
T2 construct: host or cells: HEK293t
T2 sequence (P51449 269-508 limits assumed): T1 sequence (P51449 269-508 limits assumed)
The assay is described as follows: RORγ Reporter Assay (Gal4). Type of assay: cell-based. Conditions: values given as lower bounds of ranges; for Gal4 activity range @ 1 μM (% inhibition): RORγ Reporter Assay (Gal4) at 1 μM; for Gal4 activity range @ 0.1 μM (% inhibition): RORγ Reporter Assay (Gal4) at 0.1 μM. The protocol: as §1
Cell-based RORγ functional assays were performed using a commercially available assay product (INDIGO Biosciences, State College, Pa., USA; product # IB04001). The RORγ reporter cells are HEK293t cells transfected with one vector that provides high level constitutive expression of a hybrid protein comprised of the yeast Gal4-DNA binding domain fused to the ligand binding domain of human RORγ, and a second vector comprising the firefly luciferase cDNA functionally linked to the upstream activation sequence (UAS) of yeast Gal4. A suspension of RORγ Reporter Cells was prepared using the protocol and culture medium provided in the kit product, and 100 μl of the Reporter Cell suspension was then dispensed into wells of a white, collagen-treated, 96-well assay plate. Concentrated stocks of test compounds were prepared in DMSO, then further diluted using media provided in the kit to generate ‘2×-concentration’ treatment media. 100 μl of medium for each respective treatment concentration dispensed into triplicate assay wells, thereby combining with the reporter cells. All media formulations contained 10% charcoal stripped Fetal Bovine Serum, but are otherwise proprietary to INDIGO Biosciences. Final treatment concentrations for each test compound were 1,000 nM and 100 nM, each with 0.1% residual DMSO. Separate control treatments were media supplemented with vehicle only (0.1% DMSO) to determine the constitutive level of RORγ activity in the reporter cells, and the reference inverse-agonist ursolic acid (f.c. 6,000 nM to 8.2 nM in 3-fold decrements) to establish a positive control inverse-agonist dose response. Assay plates were placed in a 37° C., 5% CO2, 85% humidity incubator for 24 hour. Treatment media were then discarded, 100 μl of luciferase detection reagent was added to each well, and relative light units (RLUs) were quantified from each assay well using a plate reading luminometer. Values of average RLU+/−standard deviation were computed for all treatment sets, followed by the calculations of fold-reduction: [Average RLUVehicle/Average RLUTest Cmpd]. Percent-reduction of RORγ activity in response to respective test compound treatments was calculated: [100*(1−[Ave RLUTest Cmpd/Ave RLUVehicle)] where the theoretical minimum reduction (0% reduction) derives from Vehicle treatment only, no treatment compound.

As to `NC(=O)Cc1ccc(CNc2ncnc(N3C[C@H](F)C[C@@H]3c3ccc(C(F)(F)F)cc3)c2F)cc1` (racemic) [Example 241, 2-[4-[[[5-fluoro-6-[(2R,4R)-4-fluoro-2-[4-(trifluoromethyl)phenyl]pyrrolidin-1-yl]pyrimidin-4-yl]amino]methyl]phenyl]acetamide AND 2-[4-[[[5-fluoro-6-[(2S,4S)-4-fluoro-2-[4-(trifluoromethyl)phenyl]pyrrolidin-1-yl]pyrimidin-4-yl]amino]methyl]phenyl]acetamide], the IC50 in assay [1] was < 1 µM.

`NC(=O)Cc1ccc(CNc2ncnc(N3C[C@H](F)C[C@H]3c3ccc(C(F)(F)F)cc3)c2F)cc1` (racemic) [Example 242, 2-[4-[[[5-fluoro-6-[(2S,4R)-4-fluoro-2-[4-(trifluoromethyl)phenyl]pyrrolidin-1-yl]pyrimidin-4-yl]amino]methyl]phenyl]acetamide AND 2-[4-[[[5-fluoro-6-[(2R,4S)-4-fluoro-2-[4-(trifluoromethyl)phenyl]pyrrolidin-1-yl]pyrimidin-4-yl]amino]methyl]phenyl]acetamide]: in assay [1], the IC50 was < 2 µM.

Consider `CC(C)(C)C[C@@H](Nc1ncnc(N2CCC[C@@H]2c2ccc(C(F)(F)F)cc2)c1F)C(N)=O` (single isomer, unassigned) [Example 5, (2R)-2-[[5-fluoro-6-[(2R)-2-[4-(trifluoromethyl)phenyl]pyrrolidin-1-yl]pyrimidin-4-yl]amino]-4,4-dimethyl-pentanamide or (2R)-2-[[5-fluoro-6-[(2S)-2-[4-(trifluoromethyl)phenyl]pyrrolidin-1-yl]pyrimidin-4-yl]amino]-4,4-dimethyl-pentanamide], for which the IC50 in assay [1] was < 0.5 µM.

For the compound `CC(C)(C)CC(Nc1ncnc(N2CCCC2c2ccc3ncccc3c2)c1F)C(N)=O` (stereo in doubt) [Example 23, (2R)-2-[[5-fluoro-6-[2-(6-quinolyl)pyrrolidin-1-yl]pyrimidin-4-yl]amino]-4,4-dimethyl-pentanamide], the IC50 in assay [1] is < 0.5 µM.

Regarding `CC(C)(C)CC(Nc1ncnc(N2CCCC2c2ccc3c(c2)OCCO3)c1F)C(N)=O` (stereo in doubt) [Example 24, (2R)-2-[[6-[2-(2,3-dihydro-1,4-benzodioxin-6-yl)pyrrolidin-1-yl]-5-fluoro-pyrimidin-4-yl]amino]-4,4-dimethyl-pentanamide], the IC50 in assay [1] is < 0.5 µM.

With `CCC(C(=O)NCc1ccoc1C(N)=O)n1ccc2c(N3CCCC3c3ccc(-c4ccccc4)cc3)ncnc21` (stereo not shown) [Example 4, 3-[[2-[4-[2-(4-phenylphenyl)pyrrolidin-1-yl]pyrrolo[2,3-d]pyrimidin-7-yl]butanoylamino]methyl]furan-2-carboxamide], in assay [1], the IC50 is < 0.5 µM.

Consider `NC(=O)[C@@H](Cc1cc(F)c(F)cc1F)Nc1ncnc(N2CCCC2c2nc3ccccc3s2)c1F` (stereo partly drawn) [Example 9, (2R)-2-[[6-[2-(1,3-benzothiazo1-2-yl)pyrrolidin-1-yl]-5-fluoro-pyrimidin-4-yl]amino]-3-(2,4,5-trifluorophenyl)propanamide], for which the IC50 in assay [1] was < 0.5 µM.

Regarding `CC(C)(C)C[C@@H](Nc1ncnc(N2CCCC2c2ccc(Cl)cc2Cl)c1F)C(N)=O` (stereo partly drawn) [Example 11, (2R)-2-[[6-[2-(2,4-dichlorophenyl)pyrrolidin-1-yl]-5-fluoro-pyrimidin-4-yl]amino]-4,4-dimethyl-pentanamide], the IC50 in assay [1] was < 0.5 µM.

Consider `NC(=O)Cc1ccc(COc2ncnc(N3CCCC3c3ccc(C(F)(F)F)nc3)c2F)cc1` (stereo not shown) [Example 84, 2-[4-[[5-fluoro-6-[2-[6-(trifluoromethyl)-3-pyridyl]pyrrolidin-1-yl]pyrimidin-4-yl]oxymethyl]phenyl]acetamide], for which, in assay [2], the “Gal4 activity range @ 1 μM (% inhibition)” value is recorded as >20 % inhibition.

Regarding `NC(=O)Cc1ncc(COc2ncnc(N3CCCC3c3ccc(C(F)(F)F)cc3)c2F)cn1` (stereo not shown) [Example 86, 2-[5-[[5-fluoro-6-[2-[4-(trifluoromethyl)phenyl]pyrrolidin-1-yl]pyrimidin-4-yl]oxymethyl]pyrimidin-2-yl]acetamide], in assay [2], the “Gal4 activity range @ 1 μM (% inhibition)” value is recorded as >20 % inhibition.

As to `NC(=O)Cc1ncc(CNc2ncnc(N3CCCC3c3ccc(C(F)(F)F)cc3)c2F)cn1` (stereo not shown) [Example 87, 2-[5-[[[5-fluoro-6-[2-[4-(trifluoromethyl)phenyl]pyrrolidin-1-yl]pyrimidin-4-yl]amino]methyl]pyrimidin-2-yl]acetamide], in assay [2], the “Gal4 activity range @ 1 μM (% inhibition)” value is reported as >20 % inhibition.

Turning to `Cc1ccc(CNc2ncnc(-n3nncc3-c3ccc(C(F)(F)F)cc3)c2F)cn1` [Example 96, 5-fluoro-N-[(6-methyl-3-pyridyl)methyl]-6-[5-[4-(trifluoromethyl)phenyl]triazol-1-yl]pyrimidin-4-amine], in assay [2], the “Gal4 activity range @ 0.1 μM (% inhibition)” value is recorded as >0 % inhibition and the “Gal4 activity range @ 1 μM (% inhibition)” value is reported as >20 % inhibition.

For the compound `COc1nc(C)ccc1CNc1ncnc(N2CCCC2c2ccc(C(F)(F)F)cc2)c1F` (stereo not shown) [Example 99, 5-fluoro-N-[(2-methoxy-6-methyl-3-pyridyl)methyl]-6-[2-[4-(trifluoromethyl)phenyl]pyrrolidin-1-yl]pyrimidin-4-amine], in assay [2], the “Gal4 activity range @ 0.1 μM (% inhibition)” value is reported as >20 % inhibition and the “Gal4 activity range @ 1 μM (% inhibition)” value is recorded as >50 % inhibition.

`Cc1ccc(CNc2ncnc(N3CCCC3c3ccc(C(F)(F)F)cc3O)c2F)cn1` (stereo not shown) [Example 104, 2-[1-[5-fluoro-6-[(6-methyl-3-pyridyl)methylamino]pyrimidin-4-yl]pyrrolidin-2-yl]-5-(trifluoromethyl)pheno1]: in assay [2], the “Gal4 activity range @ 0.1 μM (% inhibition)” value was >0 % inhibition and the “Gal4 activity range @ 1 μM (% inhibition)” value is recorded as >20 % inhibition.

Turning to `Cc1nc(CNc2ncnc(N3CCCC3c3ccc(C(F)(F)F)cc3)c2F)ccc1C(C)O` (stereo not shown) [Example 112, 1-[6-[[[5-fluoro-6-[2-[4-(trifluoromethyl)phenyl]pyrrolidin-1-yl]pyrimidin-4-yl]amino]methyl]-2-methyl-3-pyridyl]ethanol], in assay [2], the “Gal4 activity range @ 0.1 μM (% inhibition)” value is reported as >0 % inhibition and the “Gal4 activity range @ 1 μM (% inhibition)” value is on record as >20 % inhibition.

Consider `O=C(O)Cc1ccc(CNc2ncnc(N3CCC[C@@H]3c3ccc(C(F)(F)F)cc3)c2F)cc1` [Example 117, 2-[4-[[[5-fluoro-6-[(2R)-2-[4-(trifluoromethyl)phenyl]pyrrolidin-1-yl]pyrimidin-4-yl]amino]methyl]phenyl]acetic acid], for which the “Gal4 activity range @ 0.1 μM (% inhibition)” value in assay [2] is given as >50 % inhibition.

As to `O=C(c1ccncc1)N1CCC(Nc2ncnc(N3CCCC3c3ccc(C(F)(F)F)cc3)c2F)C1` (stereo not shown) [Example 121, [3-[[5-fluoro-6-[2-[4-(trifluoromethyl)phenyl]pyrrolidin-1-yl]pyrimidin-4-yl]amino]pyrrolidin-1-yl]-(4-pyridyl)methanone], in assay [2], the “Gal4 activity range @ 0.1 μM (% inhibition)” value is reported as >20 % inhibition and the “Gal4 activity range @ 1 μM (% inhibition)” value was >50 % inhibition.

For `O=C1CCCN1Cc1ccc(CNc2ncnc(N3CCCC3c3ccc(C(F)(F)F)cc3)c2F)cc1` (stereo not shown) [Example 124, 1-[[4-[[[5-fluoro-6-[2-[4-(trifluoromethyl)phenyl]pyrrolidin-1-yl]pyrimidin-4-yl]amino]methyl]phenyl]methyl] pyrrolidin-2-one], the “Gal4 activity range @ 1 μM (% inhibition)” value in assay [2] is >20 % inhibition.

On to `NC(=O)Cc1ccc(CNc2ncnc(N3CCCC3c3ccccc3)c2F)cc1` (stereo not shown) [Example 279, 2-[4-[[[5-fluoro-6-(2-phenylpyrrolidin-1-yl)pyrimidin-4-yl]amino]methyl]phenyl]acetamide], for which, in assay [2], the “Gal4 activity range @ 0.1 μM (% inhibition)” value was >20 % inhibition and the “Gal4 activity range @ 1 μM (% inhibition)” value is >50 % inhibition.
